# From publication PMC7261172, “Peptides containing the PCNA interacting motif APIM bind to the β-clamp and inhibit bacterial growth and mutagenesis” (Nucleic Acids Research, 2020)
# Where two headings read alike, the source gives them in different places.
# Assays:
# E.coli β-clamp = molecular target: T1, E.coli β-clamp (Escherichia coli, UniProt P0A988); assay: Microscale thermophoresis (MST) β-clamp binding
# T1 construct: made in house
# Procedure: Purified E.coli β-clamp ([49]) was labeled using the RED-Maleimide Labelling Kit (NanoTemper Technologies, GmbH) according to the manufacturer's instructions applying a concentration of 20 μM protein at room temperature. The ligands, cell penetrating APIM-peptides, were dissolved and diluted in supplemented Microscale thermophoresis (MST) buffer (50 mM Tris–HCl pH 7.5, 150 mM NaCl, 10 mM MgCl2) with 2% fetal bovine serum and incubated for 10 min in room temperature. Series of 1:1 dilutions (16×), producing ligand concentrations ranging from 500 μM to 15 nM, were made. Each ligand solution was further diluted 1:1 with fluorescent labeled β-clamp (diluted in MST buffer, 3 nM) and incubated for 10 min. Fluorescence was measured for each protein-ligand sample using a Monolith NT.115 instrument (20% MST power and 100% LED power) and Monolith NT Standard Treated Capillaries (both NanoTemper Technologies, GmbH). To calculate the KD’s, fluorescence signals were plotted and analyzed using the supplemented software (NT Analysis software version 1.5.41 and MO.affinity analysis version 2.2.4, NanoTemper Technologies). Denaturation with SD-buffer (4% sodium dodecyl sulphate and 40 mM DTT) and re-measurement of total fluorescence confirmed that the observed change in fluorescence was due to ligand binding event.
# E. coli BL21 [1] = format: cell-based, Escherichia coli; conditions: Mueller-Hinton Broth, 5 × 10^5 CFU/ml, 24 h, 37°C; average of ≥3 independent biological experiments
# Procedure: (§1) Briefly, bacterial suspension in Mueller-Hinton Broth was adjusted to 0.5 McFarland and diluted to 5 × 10^5 CFU/ml. The suspension (0.1 ml) was seeded in polypropylene microtiter plates (Greiner), 5 × 10^4 CFU/well. APIM-peptides were added as 10% of the total volume. Initial inoculums were quantified by seeding on agar for verification of the estimated CFU/mL. After 24 hours (h) incubation at 37°C, the microtiter plates were inspected for visible growth.
# E. coli MG1655 [2] = format: cell-based, Escherichia coli; conditions: Mueller-Hinton Broth, 5 × 10^5 CFU/ml, 24 h, 37°C; average of ≥3 independent biological experiments
# Procedure: as §1
# S.epidermidis (MRSE) = format: cell-based, Staphylococcus epidermidis; conditions: 24 h
# Procedure: as §1
# E. coli MG1655 [3] = assay: Rif^R mutagenicity assay, added cell penetrating peptides; format: cell-based, Escherichia coli; conditions: for Mutation frequency, added peptides: spontaneous, E. coli MG1655, cell penetrating peptide 20 μM, average ± SEM, RWLVK n = 11, RFSLK n = 4, RWLK n = 7, R11 n = 5, control 10.5 ± 2.2
# Procedure: (§2) The rifampicin resistance (Rif^R) mutagenicity assay was performed as described in ([50]) with some modifications. Briefly, E. coli BL21 expressing peptide variants were induced with (IPTG) (1 mM) at OD600 = 0.3–0.4 and cultured at 37°C, for 2 h before harvested. Bacteria from large culture volumes (up to 50 ml) were plated in order to obtain ∼100 Rif^R colonies per dish. The anti-mutagenic effect of cell penetrating APIM-peptides in E. coli MG1655 was done by adding 20 μM peptide at OD600 = 0.01, and the cells were cultured for 30 min. Next, the cells were pelleted and washed with PBS before UV-irradiated in (50 μl) PBS (2 mJ UVC/cm^2), re-suspended in 2.5 ml LB and cultured in 37°C for 2 h before plating on LB plates with and without Rif (100 μg/ml). The number of Rif^R colonies/ total CFU was determined after 1 and 2 days, respectively. Significance was calculated by using a two-tailed, paired, students t-test. Gentamicin resistance (Gen^R) was examined using a gentamicin sensitive clinical isolate of S. epidermidis. […] The cultures were grown in a shaking incubator (37°C) and were re-inoculated (1:100) every 24 h in fresh TSB and supplements. The cultures were plated on blood agar plates with and without gentamicin (10 mg/l) every day for 4 days, and the frequency of Gen^R colonies was determined by calculating the number of Gen^R colonies/total CFU.
# [4] = tested on: mutant β-clamps (H148K, M362D, V151A, P363D, P242D, V247F); assay: SPR analysis, immobilized mutant β-clamps; format: binding, Escherichia coli; conditions: Figure 2B
# Procedure: (§4) The experiment was performed with Biacore S200 (GE Healthcare), at 25°C with a flowrate of 30 μl/min. Purified WT and mutant β-clamp protein were immobilized by amine coupling on CM5 Series S sensor chips (GE Healthcare).
# (§5) Octamer peptides containing APIM motifs (underlined) [sequence] and [sequence] were diluted in running buffer (PBS P+ buffer: 20 mM phosphate buffer pH 7.4, 3 mM KCl, 137 mM NaCl, 0.05% surfactant P20) at 4, 8, 16, 32, 64 and 128 μM, and analyzed by single-cycle mode. Six consecutive injections of alternating running buffer or peptide in running buffer, with an association phase of 120 seconds (s) followed by a dissociation phase of 60 s and a final dissociation phase of 600 s, were run for each β-clamp protein variant. The running buffer series were used as blanks together with the signal from the reference channels for double-reference subtraction. After each series of six injections, the sensor chip was washed with a 120 s regeneration injection of 1 M NaCl followed by a 120 s injection of running buffer. The sensorgrams were processed (reference subtracted) with Biacore S200 Evaluation Software Version 1.1 (GE Healthcare) and normalized according to the immobilized level.
# β-clamp = conditions: peptide:β-clamp 100:5 μM (RWLVK, RALVK octamers) or 50:20 μM (Pol III peptide); 298 K, pH 7.4
# Procedure: All NMR spectra were recorded in a standard 5 mm NMR tube at 298 K in 20 mM NaH2PO4, 100 mM NaCl, pH 7.4, 0.25 mM DSS, 10% D2O on a Bruker AVANCE III 800-MHz (^1H) spectrometer equipped with a room temperature probe. Free induction decays were transformed and analyzed in Topspin (Bruker Biospin) and the aromatic region assigned.
# WT β-clamp = assay: SPR analysis, immobilized WT β-clamp; format: binding, Escherichia coli; conditions: 4-128 μM peptide, single-cycle mode, 25°C, PBS P+ pH 7.4; Figure 2A
# Procedure: as §4, §5
# S.aureus ATCC 29213 = assay: microbe, parasite or virus in culture; format: cell-based, Staphylococcus aureus
# Procedure: as §1
# (§3) Determination of minimal inhibitory concentrations (MICs) for S. aureus was done at Statens Serum Institute, Copenhagen, Denmark.
# S.aureus FDA486 = assay: microbe, parasite or virus in culture; format: cell-based, Staphylococcus aureus
# Procedure: as §1, §3
# S.aureus FusA88799 = format: cell-based, Staphylococcus aureus; conditions: n = 3
# Procedure: as §1, §3
# S.aureus (MRSA) 43484 = format: cell-based, Staphylococcus aureus
# Procedure: as §1, §3
# [5] = tested on: E. coli MG1655 WT and TLS deletion mutant cells; assay: Rif^R mutagenicity assay in WT and TLS deletion strains; format: cell-based, Escherichia coli; conditions: peptide 20 μM
# Text: S. aureus: ATCC 29213, FDA486, methicillin-resistant S. aureus strain (MRSA) 43484 and FusA88779; S. epidermidis: clinical isolates (including one gentamicin sensitive strain and several multidrug-resistant strains) from Department of Microbiology, St. Olavs University Hospital, Trondheim, Norway, kindly provided by professor Kåre Bergh; Escherichia coli: strains DH5α, BL21 (RIPL) DE3 (Novagen), K12 (MG1655) wild type (WT) and TLS deletion strains (ΔPol II^3, ΔPol IV^1, ΔPol V^1, ΔPol II/IV^3, ΔPol II/V^3, ΔPol IV/V^2 and ΔPol II/IV/V^3). ^1 Keio collection, ^2 generated by Prof Magnar Bjørås’ group, UiO and ^3prepared as described ([43]). Briefly, polB was inactivated in E. coli MG1655 WT, ΔPol IV, ΔPol V and ΔPol IV/V using JW0059:: polB. A phage stock (T4GT7) diluted in T4 buffer was added to the JW0059::polB culture, incubated and plated on LB agar plates. The lysate was harvested and added to 2 ml T4 buffer and 0.2 ml CHCl3 (T4GT7 lysate). The mixture was centrifuged, and supernatant stored at 4°C over 20 μl CHCl3. 0.5 ml overnight culture of the recipient cells was re-suspended in 1 ml of T4 buffer and aliquoted. The T4GT7 lysate (10^−1, 10^−2, 10^−3 and 10^−4 dilutions) was added to the aliquots, incubated for 25 minutes (min) at room temperature and plated on LB-agar plates with kanamycin. Colonies obtained were re-streaked twice to obtain a pure culture. Kanamycin resistance cassettes replacing the deleted polB genes were removed by an FLP-recombinase expressed by pCP20 plasmid.
# as §2
# E. coli BL21 [6] = assay: Overexpression (viability) assay; format: cell-based, Escherichia coli; conditions: IPTG 1 mM; 2 and 8 h after induction; peptide without cell penetrating part (MD-APIM-GILQSTLA); Figure 1D, Suppl. S1A
# Procedure: A stop codon is found in the multiple cloning site after the NcoI/NheI site. The sequence over-expressed is MD-APIM-[…].
# Induction was performed using isopropyl β-D-1-thiogalactopyranoside (IPTG) (1 mM) at OD600 = 0.3 - 0.4. Bacterial growth was measured by OD600 or the number of colony-forming units (CFU) per ml.
# E. coli BL21 [7] = assay: Rif^R mutagenicity assay, overexpressed peptides; format: cell-based, Escherichia coli
# Procedure: as §2
# [8] = molar form of the μg/ml MIC, n = 3
# T1 sequence (P0A988 whole entry): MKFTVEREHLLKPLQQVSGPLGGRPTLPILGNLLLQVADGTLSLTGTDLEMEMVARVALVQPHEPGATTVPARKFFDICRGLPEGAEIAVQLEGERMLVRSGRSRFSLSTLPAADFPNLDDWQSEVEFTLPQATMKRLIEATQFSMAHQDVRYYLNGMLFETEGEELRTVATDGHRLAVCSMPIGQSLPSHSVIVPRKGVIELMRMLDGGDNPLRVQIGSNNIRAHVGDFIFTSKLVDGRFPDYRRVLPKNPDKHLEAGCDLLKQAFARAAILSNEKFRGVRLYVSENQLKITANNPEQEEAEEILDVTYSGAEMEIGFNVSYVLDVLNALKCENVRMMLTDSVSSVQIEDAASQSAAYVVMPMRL
substance,measurement,setting,value
Ac-MDRWLKWKKKRKIRRRRRRRRRRR-NH2 [RWLK],KD for the β-clamp (MST),"E.coli β-clamp; cell penetrating peptides, MST buffer with 2% fetal bovine serum, initial in vitro binding experiments, bounds given",no binding was detected
same,Minimal Inhibitory Concentration (MIC) E. coli BL21,E. coli BL21 [1],6 µM
same,Minimal Inhibitory Concentration (MIC) E. coli MG1655,E. coli MG1655 [2],12 µM
same,Minimal Inhibitory Concentration (MIC) S.epidermidis (MRSE),"S.epidermidis (MRSE); Mueller-Hinton Broth, 5 × 10^5 CFU/ml, 37°C, average of ≥3 independent biological experiments",4 µM
same,"Mutation frequency, added peptides",E. coli MG1655 [3],7.7 ± 3.3 Rif^R/10^8 CFU
"Ac-MDRWLVKW [octamer peptide containing APIM, without the cell penetrating part]",Binding of peptide to all β-clamp variants (SPR),"[4]; H148K, M362D, V151A, P363D, P242D, V247F versus WT",reduced ability to bind
same,Reduced binding of peptide to β-clamp V247F (SPR),[4]; β-clampV247F versus WT,~50%
same,"Binding to β-clamp by 1D 1H NMR (line broadening, chemical shift or intensity change)",β-clamp,visual line broadening
same,Binding of octamer peptide to WT β-clamp (SPR),WT β-clamp,bound stronger
Ac-MDRWLVKWKKKRKIRRRRRRRRRRR-NH2 [RWLVK],Kd,E.coli β-clamp,< 50 µM
same,Minimal Inhibitory Concentration (MIC) S.aureus ATCC 29213,"S.aureus ATCC 29213; ATCC 29213, 24 h",10 µg/mL
same,Minimal Inhibitory Concentration (MIC) S.aureus ATCC 29213,"S.aureus ATCC 29213; molar form of the μg/ml MIC (RWLVK MW = 3674 Da, ciprofloxacin MW = 313 Da), n = 3",3 µM
same,Minimal Inhibitory Concentration (MIC) S.aureus FDA486,"S.aureus FDA486; FDA486, 24 h",10 µg/mL
same,Minimal Inhibitory Concentration (MIC) S.aureus FDA486,S.aureus FDA486; [8],3 µM
same,Minimal Inhibitory Concentration (MIC) E. coli BL21,E. coli BL21 [1],5 µM
same,Minimal Inhibitory Concentration (MIC) E. coli MG1655,E. coli MG1655 [2],11 µM
same,Minimal Inhibitory Concentration (MIC) S.epidermidis (MRSE),S.epidermidis (MRSE),3 µM
same,Minimal Inhibitory Concentration (MIC) S.aureus FusA88799,"S.aureus FusA88799; Mueller-Hinton Broth, 5 × 10^5 CFU/ml, 24 h, 37°C, visible growth",10 µg/mL
same,Minimal Inhibitory Concentration (MIC) S.aureus FusA88799,S.aureus FusA88799; molar form of the μg/ml MIC,3 µM
same,Minimal Inhibitory Concentration (MIC) S.aureus (MRSA) 43484,"S.aureus (MRSA) 43484; 43484, 24 h",10 µg/mL
same,Minimal Inhibitory Concentration (MIC) S.aureus (MRSA) 43484,S.aureus (MRSA) 43484; [8],3 µM
same,Effect on mutation frequency after UV-damage in all Pol V containing strains,"[5]; UV 2 mJ/cm^2, Figure 4C",reduced the mutation frequency
same,Effect on mutation frequency after UV-irradiation in the ΔPol IV/V strain,"[5]; UV 2 mJ/cm^2, Figure 4C",reduction in the mutation frequency
same,Effect on spontaneous mutation frequency in wild type (WT),"[5]; n = 8–10, Figure 4C",significantly reduced
same,Effect on mutation frequency in the TLS deficient ΔPol II/IV/V strain,[5]; under any conditions (spontaneous and UV),No reduction of mutation frequency
same,Effect on spontaneous mutation frequency in the ΔPol II/V strain,[5]; Figure 4C,increased mutation frequency
same,Effect on UV-induced mutation frequency,"E. coli MG1655 [3]; E. coli MG1655, peptide 20 μM, 2 mJ UVC/cm^2, Figure 4A",reduced the mutation frequency
same,"Mutation frequency, added peptides",E. coli MG1655 [3],5.9 ± 2.3 ** Rif^R/10^8 CFU
MD-RALVK- GILQSTLA [RALVK (overexpressed)],Effect of peptide overexpression on bacterial growth (CFU/ml relative to uninduced culture; OD600),E. coli BL21 [6],did not inhibit bacterial growth
MD-RWLK- GILQSTLA [RWLK (overexpressed)],Effect of peptide overexpression on bacterial growth (CFU/ml relative to uninduced culture; OD600),E. coli BL21 [6],did not inhibit bacterial growth
same,Effect of overexpression on the mutation frequency,"E. coli BL21 [7]; E. coli BL21, spontaneous",did not affect the mutation frequency
same,"Mutation frequency, overexpressed peptides","E. coli BL21 [7]; spontaneous, E. coli BL21, IPTG 1 mM, 2 h, average ± SEM, RWLVK n = 5, RFSLK n = 5, RWLK n = 6, control 2.5 ± 0.4",3.8 ± 1.2 Rif^R/10^8 CFU
